≈ marks a conversion by molar mass, not a printed value. Read-outs that look alike come from different tables or passages of the source.
Experiments:
[1] = test system: tested bacterial strains (Gram positive or Gram negative: S. aureus, P. aeruginosa, E. coli); test: Antibacterial MIC range over the tested bacterial strains; type: cell-based; details: range over Gram positive and Gram negative strains
Protocol: (§1) . Standard strains of Staphylococcus aureus (ATCC 6538), Pseudomonas aeruginosa (ATCC 10,145), and Escherichia coli (ATCC 8739) were obtained from microbiological resource center, Faculty of Agriculture, Ain Shams University, Cairo, Egypt. All isolates were maintained at -70 °C in Trypticase Soya Broth (TSB, Becton, and Dickinson) with 10% glycerol. Prior to inoculation, all isolates were subcultured at 37 °C for 24 h on Trypticase Soya Agar (TSA, Becton, and Dickinson) and TSB, respectively.
The plates were rotated slowly to ensure uniform distribution of the microorganisms and then allowed to solidify on a flat surface. After solidification, four equidistant and circular wells of 10 mm diameter were carefully punched using a sterile cork bore. Twofold serial dilutions of the tested compounds using DMSO were performed. An equal volume of 100µL of each dilution was applied separately to each well in three replicates using a micropipette. All plates were incubated at 37 °C for 24 h. The inhibition zones were measured, and their average was calculated. The MIC was calculated by plotting the natural logarithm of the concentration of each dilution of the tested compounds against the square of zones of inhibition, and a regression line was drawn through the points then the antilogarithm of the intercept on the logarithm of concentration axis gave the MIC value.

[2] = test system: P. aeruginosa (ATCC 10,145); test: Antibacterial MIC, standard agar cup diffusion method; type: cell-based; details: Pseudomonas aeruginosa, ATCC 10145, 37 °C, 24 h, read-out: MIC P. aeruginosa (Gram-negative)
Protocol: as §1, with “The antibacterial and antifungal activities of compounds, ketone 1, 2a-j, and 5a-i were evaluated in vitro against S. aureus (ATCC 6538), P. aeruginosa (ATCC 10,145), E. coli (ATCC 8739), and C. albicans (ATCC 10,231). […] Standard” for “. Standard”
(§2) The plates were rotated slowly to ensure uniform distribution of the microorganisms and then allowed to solidify on a flat surface. After solidification, four equidistant and circular wells of 10 mm diameter were carefully punched using a sterile cork bore. Twofold serial dilutions of the tested compounds using DMSO were performed. An equal volume of 100µL of each dilution was applied separately to each well in three replicates using a micropipette. All plates were incubated at 37 °C for 24 h. The inhibition zones were measured, and their average was calculated.

[3] = test system: E. coli (ATCC 8739); test: as above; type: cell-based; details: Escherichia coli, ATCC8739, 37 °C, 24 h, read-out: MIC E. coli (Gram-negative)
Protocol: as §1, with “The antibacterial and antifungal activities of compounds, ketone 1, 2a-j, and 5a-i were evaluated in vitro against S. aureus (ATCC 6538), P. aeruginosa (ATCC 10,145), E. coli (ATCC 8739), and C. albicans (ATCC 10,231). […] Standard” for “. Standard”
as §2

[4] = molecular target: S. aureus DNA gyrase (Staphylococcus aureus, UniProt P0A0K8+P20831); test: Staphylococcus aureus DNA gyrase supercoiling assay; type: biochemical; details: supercoiling of relaxed pBR322, 37 °C, 30 min; read-out: S. aureus DNA gyrase IC50 ± SD
Protocol: As antibacterial agents, fluoroquinolones act by targeting and inhibiting DNA gyrase (topo II) which is an essential enzyme involved in the DNA replication process.
Staphylococcus aureus DNA gyrase was incubated at 37 °C for 30 min in a total reaction volume of 30 μl containing 40 mM HEPES. KOH (pH 7.6), 10 mM magnesium acetate, 10 mM DTT, 2 mM ATP, 500 mM potassium glutamate, 0.05 mg/ml albumin and Relaxed pBR322. DNA gyrase supercoiling reactions catalyzed by S. aureus gyrase, Stop reaction by adding 30 μL of STEB and 30 μL of chloroform/isoamyl alcohol (v:v, 24:1),and then Vortex briefly ~ 5 secs and centrifuge for 1 min. after which 20 µL of this was loaded on a 1% agarose gel that was then run at ~ 75 V for approximately 2 h. The gel was stained by (0.5 mg/L) ethidium bromide in water. Fluorescent images were taken at a wavelength of 300 nm on a UV transilluminator imaging system. The fluorescence intensity of the supercoiled plasmid reaction product was quantitated using ImagQuant software (Molecular Dynamics).

[5] = test system: C. albicans (ATCC 10,231); test: Antifungal MIC, agar cup diffusion method; type: cell-based, Candida albicans; details: Sabouraud agar, 37 °C; for MIC: Candida albicans, ATCC 10,231, 24 h, read-out: MIC C. albicans (Fungi); for MIC C. albicans (Fungi): 24 h
Protocol: The antibacterial and antifungal activities of compounds, ketone 1, 2a-j, and 5a-i were evaluated in vitro against S. aureus (ATCC 6538), P. aeruginosa (ATCC 10,145), E. coli (ATCC 8739), and C. albicans (ATCC 10,231). […] The antifungal activity of compounds 1, 2a-j, and 5a-i and ketoconazole were determined according to the agar cup diffusion method at Deraya University, Faculty of Pharmacy, Department of Microbiology.
Fungal strains and culture conditions. […] Standard strain of Candida albicans (ATCC 10,231) was obtained from microbiological resource center, Faculty of Agriculture, Ain Shams University, Cairo, Egypt. The isolate was maintained at -70 °C in Trypticase Soya Broth (TSB, Becton, and Dickinson) with 10% glycerol. Prior to inoculation, the isolate was subcultured at 37 °C for 24 h on Trypticase Soya Agar (TSA, Becton, and Dickinson) and TSB, respectively.
as §2

[6] = test system: S. aureus (ATCC 6538); test: Antibacterial MIC, standard agar cup diffusion method; type: cell-based, Staphylococcus aureus; details: Staphylococcus aureus, ATCC6538, 37 °C, 24 h, read-out: MIC S. aureus (Gram-positive)
Protocol: as §1, with “The antibacterial and antifungal activities of compounds, ketone 1, 2a-j, and 5a-i were evaluated in vitro against S. aureus (ATCC 6538), P. aeruginosa (ATCC 10,145), E. coli (ATCC 8739), and C. albicans (ATCC 10,231). […] Standard” for “. Standard”
as §2

[7] = physchem; details: pH 7.8
Protocol: The n-octanol/water apparent partition coefficient at the isoelectric point (or distribution constant) was measured by using the traditional shake-flask technique. The pH of the aqueous buffer was first adjusted to isoelectric point of the compound. The n-octanol and aqueous phases were then mutually saturated before the measurement. […] The samples were agitated for 5h at water bath shaker thermostatized at 25 ± 1^◦C and 100 rpm. The concentration of the solute was determined in the aqueous and organic phases at the isoelectric point by UV spectroscopy the log p value was calculated as follows: […].

[8] = Solubility determination in phosphate buffer; type: physicochemical; details: aqueous buffer, thermodynamic from solid
Protocol: A sample of drug was accurately weighed and dissolved in 100 ml of distilled water to prepare 100 mcg/ml stock solutions. Appropriate dilution of the stock solution with phosphate buffer pH 6.8 and 7.8 was then made to prepare a working solution of 40mcg/ml.
After determination of λ max of drug, a calibration curve was constructed by preparing solutions containing different concentrations of (1–5 mcg/ml) from stock solution after appropriate dilution with phosphate buffer pH 6.8. The UV absorbance of the prepared sample solutions were measured at the predetermined λ max using phosphate buffer pH 6.8 as a blank.
Aqueous solubility of the complexes was measured as a function of pH. An excess of each derivative was placed into suitable stoppered containers. […] The samples were immersed in a water bath thermostatized at 37 ± 1^◦C and 100 rpm and periodically shaken for 48 h. Once the equilibrium was reached, the pH of the supernatant was regarded.

[9] = phosphate buffer pH 6.8, 37 °C, read-out: Solubility pH 6.8
[10] = phosphate buffer pH 7.8, 37 °C, read-out: Solubility pH 7.8

Chain of S. aureus DNA gyrase (P20831 whole entry): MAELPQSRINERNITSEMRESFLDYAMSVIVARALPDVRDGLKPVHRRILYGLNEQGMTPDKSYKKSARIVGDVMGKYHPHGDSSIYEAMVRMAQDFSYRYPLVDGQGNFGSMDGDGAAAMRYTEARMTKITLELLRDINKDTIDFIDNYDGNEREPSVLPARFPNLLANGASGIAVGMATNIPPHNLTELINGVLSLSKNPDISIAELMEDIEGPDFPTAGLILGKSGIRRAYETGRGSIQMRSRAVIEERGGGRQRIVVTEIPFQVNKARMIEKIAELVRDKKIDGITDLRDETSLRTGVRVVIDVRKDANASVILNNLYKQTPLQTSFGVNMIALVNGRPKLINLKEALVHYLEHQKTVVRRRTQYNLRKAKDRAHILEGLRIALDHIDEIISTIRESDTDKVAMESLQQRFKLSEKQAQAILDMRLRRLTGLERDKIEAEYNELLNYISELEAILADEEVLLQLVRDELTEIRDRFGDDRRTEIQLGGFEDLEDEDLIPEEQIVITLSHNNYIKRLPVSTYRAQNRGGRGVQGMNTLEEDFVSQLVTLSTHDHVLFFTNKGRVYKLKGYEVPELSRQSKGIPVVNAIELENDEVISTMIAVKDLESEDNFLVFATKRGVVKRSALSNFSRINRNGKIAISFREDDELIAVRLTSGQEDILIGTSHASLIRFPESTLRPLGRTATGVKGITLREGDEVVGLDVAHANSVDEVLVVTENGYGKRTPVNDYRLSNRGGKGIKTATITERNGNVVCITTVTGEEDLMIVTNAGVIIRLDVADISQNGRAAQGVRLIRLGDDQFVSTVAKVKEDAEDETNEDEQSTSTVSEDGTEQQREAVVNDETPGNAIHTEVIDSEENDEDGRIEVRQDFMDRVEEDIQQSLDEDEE
Chain of S. aureus DNA gyrase (P0A0K8 whole entry): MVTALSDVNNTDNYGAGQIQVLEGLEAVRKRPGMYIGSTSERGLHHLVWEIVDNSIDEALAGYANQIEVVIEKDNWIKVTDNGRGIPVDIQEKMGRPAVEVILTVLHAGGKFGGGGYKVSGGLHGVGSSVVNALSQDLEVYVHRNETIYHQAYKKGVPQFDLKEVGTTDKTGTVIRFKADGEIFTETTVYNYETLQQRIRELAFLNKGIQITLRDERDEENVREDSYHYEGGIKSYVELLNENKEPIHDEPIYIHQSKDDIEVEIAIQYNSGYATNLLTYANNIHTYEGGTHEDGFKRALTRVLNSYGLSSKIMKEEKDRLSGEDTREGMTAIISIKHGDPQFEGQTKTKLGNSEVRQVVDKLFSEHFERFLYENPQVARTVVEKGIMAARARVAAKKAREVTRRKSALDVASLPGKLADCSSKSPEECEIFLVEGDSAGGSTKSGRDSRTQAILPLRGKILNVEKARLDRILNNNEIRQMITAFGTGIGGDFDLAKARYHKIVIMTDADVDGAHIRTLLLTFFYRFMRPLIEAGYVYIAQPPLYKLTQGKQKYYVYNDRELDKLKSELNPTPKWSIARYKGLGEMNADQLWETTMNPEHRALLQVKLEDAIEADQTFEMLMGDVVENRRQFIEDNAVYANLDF

Compound	MIC range against the tested bacterial strains [1]	MIC [2]	MIC [3]	IC50 [4]	melting point	MIC [5]	MIC [6]	logD [7]	MIC C. albicans (Fungi) [5]	solubility at 48 h [8, 9]	solubility at 48 h [8, 10]	Lipophilicity (log p) [7]
COc1cc(-c2nc(SCC(=O)N3CCN(c4cc5c(cc4F)c(=O)c(C(=O)O)cn5C4CC4)CC3)[nH]c(=O)c2C#N)cc(OC)c1OC [Compound 5i, 7-(4-(2-((5-Cyano-6-oxo-4-(3,4,5-trimethoxyphenyl)-1,6-dihydropyrimidin-2-yl)thio)acetyl)piperazin-1-yl)-1-cyclopropyl-6-fluoro-4-oxo-1,4-dihydroquinoline-3-carboxylic acid]	0.06 to 1.53 µg/mL	0.13 µg/mL (≈ 0.188 µM)	0.63 µg/mL (≈ 0.912 µM)	1410 ± 70 nM	284 to 285 °C	> 100 µg/mL	0.74 µg/mL (≈ 1.07 µM)	–	–	–	–	–
O=C(/C=C/c1ccc(Cl)cc1)c1ccc(NC(=O)N2CCN(c3cc4c(cc3F)c(=O)c(C(=O)O)cn4C3CC3)CC2)cc1 [Compound 2c]	0.06 to 1.53 µg/mL	1.03 µg/mL (≈ 1.67 µM)	0.34 µg/mL (≈ 0.553 µM)	3000 ± 160 nM	–	2.03 to 3.89 µg/mL (≈ 3.3 to 6.32 µM)	0.67 µg/mL (≈ 1.09 µM)	0.07	3.89 µg/mL (≈ 6.32 µM)	130 µg/mL (≈ 211 µM)	150 µg/mL (≈ 244 µM)	–
COc1ccc(-c2nc(SCC(=O)N3CCN(c4cc5c(cc4F)c(=O)c(C(=O)O)cn5C4CC4)CC3)[nH]c(=O)c2C#N)cc1OC [Compound 5h, 7-(4-(2-((5-Cyano-4-(3,4-dimethoxyphenyl)-6-oxo-1,6-dihydropyrimidin-2-yl)thio)acetyl)piperazin-1-yl)-1-cyclopropyl-6-fluoro-4-oxo-1,4-dihydroquinoline-3-carboxylic acid]	0.06 to 1.53 µg/mL	0.49 µg/mL (≈ 0.742 µM)	0.21 µg/mL (≈ 0.318 µM)	1460 ± 80 nM	266 to 269 °C	28.7 µg/mL (≈ 43.5 µM)	0.34 µg/mL (≈ 0.515 µM)	–	–	–	–	–
COc1ccc(-c2nc(SCC(=O)N3CCN(c4cc5c(cc4F)c(=O)c(C(=O)O)cn5C4CC4)CC3)[nH]c(=O)c2C#N)cc1 [Compound 5g, 7-(4-(2-((5-Cyano-4-(4-methoxyphenyl)-6-oxo-1,6-dihydropyrimidin-2-yl)thio)acetyl)piperazin-1-yl)-1-cyclopropyl-6-fluoro-4-oxo-1,4-dihydroquinoline-3-carboxylic acid]	–	23.1 µg/mL (≈ 36.7 µM)	14.2 µg/mL (≈ 22.6 µM)	7590 ± 400 nM	239 to 242 °C	> 100 µg/mL	0.28 µg/mL (≈ 0.444 µM)	–	–	740 µg/mL (≈ 1170 µM)	900 µg/mL (≈ 1430 µM)	− 0.09
O=C(/C=C/c1cccc(Cl)c1)c1ccc(NC(=O)N2CCN(c3cc4c(cc3F)c(=O)c(C(=O)O)cn4C3CC3)CC2)cc1 [Compound 2b]	0.06 to 1.53 µg/mL	0.64 µg/mL (≈ 1.04 µM)	0.18 µg/mL (≈ 0.293 µM)	231 ± 10 nM	–	15.2 µg/mL (≈ 24.8 µM)	0.06 µg/mL (≈ 0.0976 µM)	0.31	–	160 µg/mL (≈ 260 µM)	180 µg/mL (≈ 293 µM)	–
N#Cc1c(-c2cccc(Cl)c2)nc(SCC(=O)N2CCN(c3cc4c(cc3F)c(=O)c(C(=O)O)cn4C3CC3)CC2)[nH]c1=O [Compound 5b, 7-(4-(2-((4-(3-Chlorophenyl)-5-cyano-6-oxo-1,6-dihydropyrimidin-2-yl)thio)acetyl)piperazin-1-yl)-1-cyclopropyl-6-fluoro-4-oxo-1,4-dihydroquinoline-3-carboxylic acid]	0.06 to 1.53 µg/mL	0.19 µg/mL (≈ 0.299 µM)	0.12 µg/mL (≈ 0.189 µM)	1270 ± 70 nM	248 to 251 °C	> 100 µg/mL	0.7 µg/mL (≈ 1.1 µM)	–	–	–	–	–
O=C(O)c1cn(C2CC2)c2cc(N3CCNCC3)c(F)cc2c1=O [Ciprofloxacin, reference compound]	0.15 to 3.25 µg/mL	0.22 µg/mL (≈ 0.664 µM)	0.15 µg/mL (≈ 0.453 µM)	–	–	–	3.25 µg/mL (≈ 9.81 µM)	–	–	–	–	–
N#Cc1c(-c2ccc(F)cc2)nc(SCC(=O)N2CCN(c3cc4c(cc3F)c(=O)c(C(=O)O)cn4C3CC3)CC2)[nH]c1=O [Compound 5e, 7-(4-(2-((4-(4-Fluorophenyl)-5-cyano-6-oxo-1,6-dihydropyrimidin-2-yl)thio)acetyl)piperazin-1-yl)-1-cyclopropyl-6-fluoro-4-oxo-1,4-dihydroquinoline-3-carboxylic acid]	–	3.25 µg/mL (≈ 5.25 µM)	0.52 µg/mL (≈ 0.841 µM)	1010 ± 50 nM	242 to 245 °C	2.03 to 3.89 µg/mL (≈ 3.28 to 6.29 µM)	0.78 µg/mL (≈ 1.26 µM)	–	2.51 µg/mL (≈ 4.06 µM)	–	–	–
Cc1ccc(-c2nc(SCC(=O)N3CCN(c4cc5c(cc4F)c(=O)c(C(=O)O)cn5C4CC4)CC3)[nH]c(=O)c2C#N)cc1 [Compound 5f]	–	2.95 µg/mL (≈ 4.8 µM)	3.89 µg/mL (≈ 6.33 µM)	3500 ± 190 nM	264 to 267 °C	> 100 µg/mL	4.79 µg/mL (≈ 7.79 µM)	–	–	–	–	–
N#Cc1c(-c2ccc(Cl)cc2)nc(SCC(=O)N2CCN(c3cc4c(cc3F)c(=O)c(C(=O)O)cn4C3CC3)CC2)[nH]c1=O [Compound 5c, 7-(4-(2-((4-(4-Chlorophenyl)-5-cyano-6-oxo-1,6-dihydropyrimidin-2-yl)thio)acetyl)piperazin-1-yl)-1-cyclopropyl-6-fluoro-4-oxo-1,4-dihydroquinoline-3-carboxylic acid]	–	2.04 µg/mL (≈ 3.21 µM)	1.03 µg/mL (≈ 1.62 µM)	1570 ± 80 nM	253 to 256 °C	2.03 to 3.89 µg/mL (≈ 3.2 to 6.13 µM)	0.58 µg/mL (≈ 0.913 µM)	–	2.87 µg/mL (≈ 4.52 µM)	–	–	–

From paper PMC10415461 (Molecular Diversity, 2022)
